# Assays:
# colon cancer CT26 cells = experiment: IN10018 and Docetaxel: microscopy and CRT/Annexin-V/PI flow cytometry; format: cell-based, mouse; conditions: 48 hours, IN10018 5 µM, Docetaxel 0.1 µM, alone or combined
# Experimental: CT26 cells (Institute of Cell Biology, Chinese Academy of Sciences) were cultured with RPMI-1640 (Shanghai Basalmedia, catalog number: L210KJ, batch number: F210916) + 10% FBS (Gibco, catalog number: 10099-141c, batch number: 2158737cp), and passaged twice. When the cells were in good condition, they were placed in a 24-well plate. After 24 hours of cell spreading, four groups were set up. The first group was the control group, in which culture medium was added; the second group was IN10018 at a concentration of 5µM; the third group was Docetaxel (MCE, classification number: HY-B0011, batch number: 111613) with a concentration of 0.1µM; and the fourth group was the combination group of IN10018 (5 µM) and Docetaxel (0.1µM). The drugs were mixed and cultured in a 5 % CO2 incubator at 37°C for 48 hours.
# After 48 hours of drug action, the cells were observed and photographed under a microscope. The photos were saved. Then the cells were collected for flow cytometry, and the cells were washed twice with flow buffer (PBS + 2% FBS). 0.5 µl of AF647 anti-calreticulin antibody (abcam, catalog number: ab196159, batch number: CR33676773) was added to each well, and fully mixed. The cells were incubated at 4 °C for 20 minutes in the dark. […] The mixture was incubated at room temperature in the dark for 15 minutes, and then analyzed on a flow cytometer.
# [1] = tested on: mouse breast cancer 4T1 cells; experiment: Docetaxel/Eribulin and Defactinib: microscopy and CRT/Annexin-V/PI flow cytometry; format: cell-based; conditions: 48 hours, Defactinib 5 µM, Docetaxel 0.3 µM, Eribulin 0.1 µM, alone or combined with Defactinib
# Experimental: 4T1 cells were cultured in a monolayer in vitro in RPMI-1640 medium with 10% fetal bovine serum in a 37 °C, 5% CO2 incubator. Trypsin was used for routine digestion and passage treatment two to three times a week. When the cells were in the exponential growth phase and the adherent confluence reached 80%-90%, the cells were harvested and plated.
# 4T1 cells were digested with trypsin, and then the cells were collected and counted. Based on the counting results, the cells were diluted with the corresponding complete culture medium to a concentration of 50,000 cells per milliliter. Then the cells were plated in 12-well cell culture plates, with 2 ml of cell suspension per well, i.e., 100,000 cells.
# After plating, the cells were cultured in a 37°C and 5% CO2 incubator.
# After 24 hours of plating, the test compounds Defactinib, Docetaxel and Eribulin were added to different wells, respectively.
# After 48 hours of drug action, the cells were photographed using a microscope, and then trypsinized and collected for flow cytometry staining.
# The cells were washed twice with flow buffer (DPBS + 2% FBS). 0.5 µL of AF647 Anti-Calreticulin Antibody was added to each well, and mixed well. The cells were incubated at 4°C in the dark for 20 min. […]
# After the assay, the cell positive rate was analyzed by Flowjo (V10) software.
# breast cancer 4T1 cells = experiment: Subcutaneous allograft tumor model of breast cancer 4T1 cells in BALB/c mice; format: in vivo
# Source text: Mice: Female BALB/c mice aged 6-8 weeks were purchased from SHANGHAI SLAC LABORATORY ANIMAL CO. LTD. The assay began after the animals were adapted to the assay environment upon arrival. The animals were kept in IVC (independent ventilation system) cages (5 per cage) in an SPF animal room. All cages, padding and drinking water must be sterilized before use. All assay personnel should wear protective clothing and latex gloves when operating in the animal room. Cages, feed and drinking water were replaced twice a week. The feeding environment and lighting conditions were as follows: • Temperature: 20-26 °C • Humidity: 40-70% • Lighting period: 12 hours light, 12 hours no light • Cages: Made of polycarbonate, 300 mm × 180 mm × 150 mm. The padding was corn cobs, which was replaced twice a week. • Food: The assay animals had free access to food (dry pelleted food sterilized by irradiation) throughout the assay period. • Drinking water: Assay animals were free to drink sterile water. • Cage identification: The animal information card for each cage should indicate the number of animals in the cage, gender, strain, receipt date, dosing regimen, assay number, group and start date of the assay. • Animal identification: Assay animals were identified with ear tags.
# Breast cancer cell 4T1 (source: Nanjing Cobioer Biotechnology Co., Ltd., catalog number: CBP60352) was maintained and passaged by INXMED (Nanjing) Co., Ltd. The cells were cultured in a monolayer in vitro in RPMI-1640 medium with 10% fetal bovine serum in a 37 °C, 5% CO2 incubator. Trypsin-EDTA was used for routine digestion and passage treatment two to three times a week. When the cells were in the exponential growth phase and the adherent confluence reached 80%-90%, the cells were harvested and plated.
# 0.1 mL of cell suspension containing 2 x 10^5 cells was subcutaneously inoculated on the right back of each mouse. When the tumor volume reached ~52 mm^3 (10th day after cell inoculation), the mice were randomly divided into groups for drug administration according to the tumor volume. Table 9. Dosing regimen of the test substance in 4T1 mouse transplant tumor model
# The formulation and any modifications of this assay protocol had been assessed and approved by the IACUC of ArrayBridge. The use and welfare of assay animals were carried out in accordance with AAALAC regulations. The health status and mortality of animals were monitored daily, with routine checks including observation of tumor growth and the impact of drug treatment on the animals' daily behavior, such as activity, food and water intake (estimated by visual inspection), changes in body weight, physical signs, or any other abnormalities. The number of animal deaths and side effects in each group were recorded based on the number of animals in each group.
# If the animal's health condition continued to deteriorate, or if the tumor volume exceeded 3,000 mm^3, or there was a serious disease or pain, euthanasia should be carried out. In the following cases, the veterinarian was notified and euthanasia was performed: obvious weight loss, i.e., weight loss greater than 20%; inability to freely eat and drink; the average tumor volume of the control group reached 2000 mm^3, the assay was terminated.
# Tumor diameters were measured three times a week using calipers. The tumor volume was calculated using the formula: V = 0.5 × a × b^2, where a and b represent the long and short diameters of the tumor, respectively.
# Based on the tumor volume on the first day after grouping, the tumor growth inhibition rate TGI (%) was calculated according to the following formula: TGI (%) = [1 - (average tumor volume of a treatment group - average tumor volume of the treatment group at the beginning of treatment) / (average tumor volume of the solvent control group - average tumor volume of the solvent control group at the beginning of treatment)] × 100%. […]
smiles,measurement,setting,value
CC(=O)O[C@@]12CO[C@@H]1C[C@H](O)[C@@]1(C)C(=O)[C@H](O)C3=C(C)[C@@H](OC(=O)[C@H](O)[C@@H](NC(=O)OC(C)(C)C)c4ccccc4)C[C@@](O)([C@@H](OC(=O)c4ccccc4)[C@H]21)C3(C)C [Docetaxel],cell status under a microscope,colon cancer CT26 cells,poor
same,cell status (cell death) under a microscope,[1],obvious
same,Tumor volume on day 0,"breast cancer 4T1 cells; baseline at grouping (10th day after inoculation), mean ± standard error, 6 mice per group",51.1 ± 13.2 mm^3
same,TGI,"breast cancer 4T1 cells; day 21 after administration, vs control group, DTX 10 mg/kg i.p. BIW, IN10018 25 mg/kg p.o. QD, MAX10181 120 mg/kg p.o. BID",14.9%
same,Tumor volume on day 21,"breast cancer 4T1 cells; day 21 after administration, DTX 10 mg/kg i.p. BIW, IN10018 25 mg/kg p.o. QD, MAX10181 120 mg/kg p.o. BID, mean ± standard error",1818.7 ± 644.0 mm^3

# — patent EP4578449A1, “PHARMACEUTICAL COMBINATION OF FAK INHIBITOR AND MICROTUBULE INHIBITOR AND USE THEREOF” (Inxmed (Nanjing) Co., Ltd., priority 2022, dated 2024)
